Experimental data as given in ChEMBL document CHEMBL2016457, “Discovery of potent and orally bioavailable 17β-hydroxysteroid dehydrogenase type 3 inhibitors” (Bioorg Med Chem, 2012).
pIC50: −log10 of the molar value. Activity calls are given as the source filed them.

Experiments:
[1] = test system: Rattus norvegicus; test: Inhibition of LH-RH agonist leuprorelin-induced testosterone steroidogenesis in Sprague-Dawley rat at 20 mg/kg, po administered 1 hr prior leuprorelin-induction measured up to 240 mins by GC/MS analysis; format: functional, organism-based; set-up: dose 20 mg/kg
[2] = biological target: T1, 17-beta-hydroxysteroid dehydrogenase type 1 (Homo sapiens) (UniProt P14061); test: Inhibition of human recombinant 17-beta-HSD1 expressed in human HeLa cells using estrone as substrate preincubated for 30 mins prior substrate addition measured after 120 mins by spectrophotometry; format: cell-based
T1 sequence (whole entry): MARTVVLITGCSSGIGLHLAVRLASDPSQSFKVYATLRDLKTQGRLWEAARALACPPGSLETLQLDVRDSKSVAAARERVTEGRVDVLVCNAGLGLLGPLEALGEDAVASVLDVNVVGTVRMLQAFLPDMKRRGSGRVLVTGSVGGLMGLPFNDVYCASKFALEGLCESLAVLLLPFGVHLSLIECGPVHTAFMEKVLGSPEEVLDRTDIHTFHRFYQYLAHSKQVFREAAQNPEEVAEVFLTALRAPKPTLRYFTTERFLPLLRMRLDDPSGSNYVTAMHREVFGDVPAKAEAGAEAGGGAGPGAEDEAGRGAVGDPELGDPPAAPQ

[3] = biological target: T2, 17-beta-hydroxysteroid dehydrogenase type 2 (Homo sapiens) (UniProt P37059); test: Inhibition of human recombinant 17-beta-HSD2 expressed in human HeLa cells using estradiol as substrate preincubated for 30 mins prior substrate addition measured after 120 mins by spectrophotometry; format: cell-based
T2 sequence (whole entry): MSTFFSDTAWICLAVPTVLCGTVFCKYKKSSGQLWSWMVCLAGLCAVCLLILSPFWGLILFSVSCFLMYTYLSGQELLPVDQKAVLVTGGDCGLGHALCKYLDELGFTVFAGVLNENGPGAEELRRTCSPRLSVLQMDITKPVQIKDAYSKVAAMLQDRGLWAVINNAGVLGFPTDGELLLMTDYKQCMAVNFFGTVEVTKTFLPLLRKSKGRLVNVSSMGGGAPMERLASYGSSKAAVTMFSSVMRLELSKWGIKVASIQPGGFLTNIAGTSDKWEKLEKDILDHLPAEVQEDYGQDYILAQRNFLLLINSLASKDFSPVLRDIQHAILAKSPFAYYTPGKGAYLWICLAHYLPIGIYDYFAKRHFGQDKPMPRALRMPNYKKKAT

[4] = biological target: T3, Androgen receptor (Homo sapiens) (UniProt P10275); test: Agonist activity at human androgen receptor expressed in human HeLa cells assessed as DHT-induced response after 40 hrs by luciferase/beta-galactosidase-based reporter gene assay; format: functional, cell-based
T3 sequence (whole entry): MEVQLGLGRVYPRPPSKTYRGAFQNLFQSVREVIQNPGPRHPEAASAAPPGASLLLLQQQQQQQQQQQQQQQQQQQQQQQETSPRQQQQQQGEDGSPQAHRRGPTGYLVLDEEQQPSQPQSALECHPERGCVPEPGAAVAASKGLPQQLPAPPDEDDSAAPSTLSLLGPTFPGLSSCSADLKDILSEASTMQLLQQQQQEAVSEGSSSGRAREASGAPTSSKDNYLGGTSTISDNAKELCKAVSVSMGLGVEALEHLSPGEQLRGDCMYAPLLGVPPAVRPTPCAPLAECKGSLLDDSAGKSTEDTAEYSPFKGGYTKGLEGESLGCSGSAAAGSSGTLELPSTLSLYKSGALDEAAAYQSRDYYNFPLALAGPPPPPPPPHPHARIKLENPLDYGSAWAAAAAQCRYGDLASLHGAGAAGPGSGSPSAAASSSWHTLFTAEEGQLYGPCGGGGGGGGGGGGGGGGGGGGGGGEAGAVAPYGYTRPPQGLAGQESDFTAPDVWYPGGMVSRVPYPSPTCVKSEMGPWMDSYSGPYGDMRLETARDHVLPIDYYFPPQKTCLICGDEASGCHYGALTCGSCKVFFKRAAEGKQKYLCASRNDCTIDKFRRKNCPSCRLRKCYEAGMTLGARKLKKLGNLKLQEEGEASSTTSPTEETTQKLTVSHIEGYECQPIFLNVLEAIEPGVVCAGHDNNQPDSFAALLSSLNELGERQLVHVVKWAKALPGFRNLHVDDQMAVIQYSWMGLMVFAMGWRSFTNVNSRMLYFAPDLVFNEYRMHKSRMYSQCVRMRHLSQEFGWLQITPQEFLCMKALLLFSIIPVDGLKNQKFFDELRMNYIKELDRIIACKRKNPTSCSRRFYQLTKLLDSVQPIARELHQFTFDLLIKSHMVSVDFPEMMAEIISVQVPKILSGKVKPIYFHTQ

[5] = biological target: T4, Estrogen receptor (Homo sapiens) (UniProt P03372); test: Agonist activity at human Estrogen receptor ERalpha expressed in human HeLa cells assessed as DHT-induced response after 40 hrs by luciferase/beta-galactosidase-based reporter gene assay; format: functional, cell-based
T4 sequence (whole entry): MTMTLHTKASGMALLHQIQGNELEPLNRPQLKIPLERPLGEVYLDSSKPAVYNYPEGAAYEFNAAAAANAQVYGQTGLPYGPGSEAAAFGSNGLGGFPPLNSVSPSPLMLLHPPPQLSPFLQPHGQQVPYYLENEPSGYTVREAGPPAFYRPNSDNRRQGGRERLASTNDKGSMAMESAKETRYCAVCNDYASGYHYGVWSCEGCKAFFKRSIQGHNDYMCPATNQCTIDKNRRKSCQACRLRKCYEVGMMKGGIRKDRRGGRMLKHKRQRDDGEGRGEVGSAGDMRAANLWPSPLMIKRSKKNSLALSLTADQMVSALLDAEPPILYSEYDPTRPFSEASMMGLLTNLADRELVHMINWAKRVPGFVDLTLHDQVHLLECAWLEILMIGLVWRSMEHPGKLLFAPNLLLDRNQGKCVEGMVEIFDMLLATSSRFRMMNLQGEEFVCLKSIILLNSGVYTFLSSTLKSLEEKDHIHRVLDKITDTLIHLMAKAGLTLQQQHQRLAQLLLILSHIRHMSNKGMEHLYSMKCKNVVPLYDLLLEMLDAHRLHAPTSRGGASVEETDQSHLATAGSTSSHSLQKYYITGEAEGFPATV

[6] = biological target: T5, Glucocorticoid receptor (Homo sapiens) (UniProt P04150); test: Agonist activity at human Glucocorticoid receptor expressed in human HeLa cells assessed as DHT-induced response after 40 hrs by luciferase/beta-galactosidase-based reporter gene assay; format: functional, cell-based
T5 sequence (whole entry): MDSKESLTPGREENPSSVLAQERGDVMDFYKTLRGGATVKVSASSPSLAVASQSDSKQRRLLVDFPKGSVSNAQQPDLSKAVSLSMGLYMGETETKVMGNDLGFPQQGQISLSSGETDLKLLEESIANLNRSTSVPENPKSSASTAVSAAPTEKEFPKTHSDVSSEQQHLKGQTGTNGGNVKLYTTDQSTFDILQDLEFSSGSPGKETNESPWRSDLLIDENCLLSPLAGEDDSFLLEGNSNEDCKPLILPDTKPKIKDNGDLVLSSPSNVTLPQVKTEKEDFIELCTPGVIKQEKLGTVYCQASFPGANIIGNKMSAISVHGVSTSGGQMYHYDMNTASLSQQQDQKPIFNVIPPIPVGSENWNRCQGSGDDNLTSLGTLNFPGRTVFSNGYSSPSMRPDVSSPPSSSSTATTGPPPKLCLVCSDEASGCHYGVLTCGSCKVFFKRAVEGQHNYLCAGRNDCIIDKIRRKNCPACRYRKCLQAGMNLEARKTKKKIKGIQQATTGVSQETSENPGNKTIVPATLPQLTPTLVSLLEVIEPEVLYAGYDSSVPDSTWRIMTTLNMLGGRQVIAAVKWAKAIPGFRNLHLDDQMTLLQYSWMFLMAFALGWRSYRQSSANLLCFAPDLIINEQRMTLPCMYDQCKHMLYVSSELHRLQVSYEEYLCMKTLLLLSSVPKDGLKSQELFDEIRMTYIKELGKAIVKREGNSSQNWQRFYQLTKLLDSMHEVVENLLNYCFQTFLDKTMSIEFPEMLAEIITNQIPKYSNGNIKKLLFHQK

[7] = biological target: T3, Androgen receptor (Homo sapiens); test: Antagonist activity at human androgen receptor expressed in human HeLa cells assessed as inhibition of DHT-induced response after 40 hrs by luciferase/beta-galactosidase-based reporter gene assay; format: functional, cell-based
[8] = biological target: T4, Estrogen receptor (Homo sapiens); test: Antagonist activity at human ERalpha receptor expressed in human HeLa cells assessed as inhibition of DHT-induced response after 40 hrs by luciferase/beta-galactosidase-based reporter gene assay; format: functional, cell-based
[9] = biological target: T5, Glucocorticoid receptor (Homo sapiens); test: Antagonist activity at human GR receptor expressed in human HeLa cells assessed as inhibition of DHT-induced response after 40 hrs by luciferase/beta-galactosidase-based reporter gene assay; format: functional, cell-based
[10] = biological target: T6, 17-beta-hydroxysteroid dehydrogenase type 3 (Homo sapiens, UniProt P37058); conditions: hela
T6 sequence (P37058 whole entry): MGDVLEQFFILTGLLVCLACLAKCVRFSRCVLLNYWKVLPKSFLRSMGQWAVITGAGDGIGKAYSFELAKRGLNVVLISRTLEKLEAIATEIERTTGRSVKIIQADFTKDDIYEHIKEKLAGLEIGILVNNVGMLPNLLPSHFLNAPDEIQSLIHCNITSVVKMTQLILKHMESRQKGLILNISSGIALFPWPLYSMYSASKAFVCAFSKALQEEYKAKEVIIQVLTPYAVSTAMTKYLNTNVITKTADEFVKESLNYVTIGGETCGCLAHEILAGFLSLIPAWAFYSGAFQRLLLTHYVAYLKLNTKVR
Description: (§1) Inhibition of human recombinant 17-beta-HSD3 expressed in human HeLa cells using androstenedione as substrate preincubated for 30 mins prior substrate addition measured after 120 mins by spectrophotometry

[11] = biological target: T6, 17-beta-hydroxysteroid dehydrogenase type 3
Description: as §1

Row | inhibition [2] | inhibition [3] | Activity [4] | Activity [5] | Activity [6] | Activity [7] | Activity [8] | Activity [9] | IC50 [10] | pIC50 [11] | SMILES | inhibition [1]
1 |  |  |  |  |  |  |  |  |  |  | CC(=O)O[C@H]1CC[C@@]2(C)C(=CC[C@@H]3[C@@H]2CC[C@]2(C)C(c4cccnc4)=CC[C@@H]32)C1 | Active
2 | inactive | inactive | inactive | inactive | inactive | inactive | inactive | inactive | Not Active |  | COc1ccc(N2C(=O)O/C(=C\c3ccc(O)c(C(=O)O)c3)C2=O)cc1 | 
3 | inactive | inactive | inactive | inactive | inactive | inactive | inactive | inactive | Not Active |  | COc1ccc(N2C(=O)O/C(=C\c3cc(Cl)c(O)c(Cl)c3)C2=O)cc1 | 
4 | inactive | inactive | inactive | inactive | inactive | inactive | inactive | inactive | Not Active |  | COc1ccc(N2C(=O)O/C(=C\c3ccc(O)c(C#N)c3)C2=O)cc1 | 
5 | inactive | inactive | inactive | inactive | inactive | inactive | inactive | inactive | Not Active |  | COc1ccc(N2C(=O)O/C(=C\c3ccc(O)c(CN(C)C)c3)C2=O)cc1 | 
6 | inactive | inactive | inactive | inactive | inactive | inactive | inactive | inactive | Not Active |  | NS(=O)(=O)c1ccc(N2C(=O)O/C(=C\c3ccc(O)c(Br)c3)C2=O)cc1 | 
7 | inactive | inactive | inactive | inactive | inactive | inactive | inactive | inactive | Not Active |  | O=C1NC(=S)S/C1=C\c1ccc(O)c(Br)c1 | 
8 | inactive | inactive | inactive | inactive | inactive | inactive | inactive | inactive | Not Active |  | COc1ccc(N2C(=O)/C(=C(/c3ccc(O)c(Br)c3)C(F)(F)F)SC2=S)cc1 | 
9 | inactive | inactive | inactive | inactive | inactive | inactive | inactive | inactive | Not Active |  | CN1CCC(N2C(=O)/C(=C/c3ccc(O)c(Br)c3)SC2=S)CC1 | 
10 | inactive | inactive | inactive | inactive | inactive | inactive | inactive | inactive |  | 8.40 | COc1ccc(N2C(=O)/C(=C/c3ccc(O)c(Cl)c3)OC2=S)cc1 | 
11 | inactive | inactive | inactive | inactive | inactive | inactive | inactive | inactive | Not Active |  | O=C(O)c1ccc(N2C(=O)O/C(=C\c3ccc(O)c(Br)c3)C2=O)cc1 | 
